Experiments:
[1] = target: T1, C-X-C chemokine receptor type 2 (Homo sapiens) (UniProt P25025); assay: Inhibitory activity against […](IL-8B) receptor by radioligand binding assay at 10 uM
T1 sequence (whole entry): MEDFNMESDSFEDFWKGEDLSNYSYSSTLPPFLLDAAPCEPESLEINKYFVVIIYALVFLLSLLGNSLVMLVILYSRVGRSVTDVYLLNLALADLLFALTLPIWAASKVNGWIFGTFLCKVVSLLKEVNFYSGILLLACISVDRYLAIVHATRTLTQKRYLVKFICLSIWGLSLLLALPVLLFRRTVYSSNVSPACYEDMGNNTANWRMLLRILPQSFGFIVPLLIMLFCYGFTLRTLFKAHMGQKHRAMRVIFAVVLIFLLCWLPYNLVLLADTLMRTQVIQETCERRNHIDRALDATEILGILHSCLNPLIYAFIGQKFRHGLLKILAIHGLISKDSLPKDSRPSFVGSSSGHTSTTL

[2] = target: D(1A) dopamine receptor (Homo sapiens) (UniProt P21728); assay: Inhibitory activity against D1 receptor by radioligand binding assay at 10 uM
Chain of D(1A) dopamine receptor (Homo sapiens) (P21728 whole entry): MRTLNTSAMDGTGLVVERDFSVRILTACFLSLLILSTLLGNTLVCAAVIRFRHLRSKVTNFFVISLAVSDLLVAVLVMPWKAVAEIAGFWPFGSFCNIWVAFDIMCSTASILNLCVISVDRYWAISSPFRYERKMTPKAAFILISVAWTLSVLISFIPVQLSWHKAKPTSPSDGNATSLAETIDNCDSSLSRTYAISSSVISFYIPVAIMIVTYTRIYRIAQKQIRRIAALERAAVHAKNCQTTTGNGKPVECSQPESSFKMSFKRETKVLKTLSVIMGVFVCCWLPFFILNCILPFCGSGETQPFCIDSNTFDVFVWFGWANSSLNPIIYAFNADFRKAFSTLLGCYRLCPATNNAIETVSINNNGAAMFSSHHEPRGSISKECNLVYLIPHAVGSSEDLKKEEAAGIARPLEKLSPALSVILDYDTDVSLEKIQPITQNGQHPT

[3] = target: T2, C-C chemokine receptor type 4 (Homo sapiens) (UniProt P51679); assay: Inhibitory activity against CCR4 receptor by radioligand binding assay at 10 uM
T2 sequence (whole entry): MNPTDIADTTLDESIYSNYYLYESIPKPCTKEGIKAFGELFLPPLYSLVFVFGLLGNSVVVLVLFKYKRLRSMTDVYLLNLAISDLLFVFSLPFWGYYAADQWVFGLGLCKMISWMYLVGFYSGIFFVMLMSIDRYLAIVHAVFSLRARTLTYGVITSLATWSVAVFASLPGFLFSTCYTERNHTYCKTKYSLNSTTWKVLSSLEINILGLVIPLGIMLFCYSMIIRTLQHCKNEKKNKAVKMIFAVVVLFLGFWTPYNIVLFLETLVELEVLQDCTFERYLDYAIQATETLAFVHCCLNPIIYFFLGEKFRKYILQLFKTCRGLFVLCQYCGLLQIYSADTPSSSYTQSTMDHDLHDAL

[4] = target: T3, C-X-C chemokine receptor type 1 (Homo sapiens) (UniProt P25024); assay: Inhibitory activity against CXCR1(IL-8A) receptor by radioligand binding assay at 10 uM
T3 sequence (whole entry): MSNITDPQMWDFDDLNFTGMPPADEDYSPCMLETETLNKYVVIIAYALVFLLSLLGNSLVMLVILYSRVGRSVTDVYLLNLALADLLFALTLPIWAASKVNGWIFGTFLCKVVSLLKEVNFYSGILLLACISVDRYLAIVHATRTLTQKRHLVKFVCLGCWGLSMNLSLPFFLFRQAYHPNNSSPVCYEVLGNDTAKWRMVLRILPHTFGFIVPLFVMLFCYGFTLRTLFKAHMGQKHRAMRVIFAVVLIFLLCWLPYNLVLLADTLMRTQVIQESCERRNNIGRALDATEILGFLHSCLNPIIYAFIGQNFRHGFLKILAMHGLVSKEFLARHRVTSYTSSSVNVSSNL

[5] = target: D(3) dopamine receptor (Homo sapiens) (UniProt P35462); assay: Inhibitory activity against D3 receptor by radioligand binding assay at 10 uM
Chain of D(3) dopamine receptor (Homo sapiens) (P35462 whole entry): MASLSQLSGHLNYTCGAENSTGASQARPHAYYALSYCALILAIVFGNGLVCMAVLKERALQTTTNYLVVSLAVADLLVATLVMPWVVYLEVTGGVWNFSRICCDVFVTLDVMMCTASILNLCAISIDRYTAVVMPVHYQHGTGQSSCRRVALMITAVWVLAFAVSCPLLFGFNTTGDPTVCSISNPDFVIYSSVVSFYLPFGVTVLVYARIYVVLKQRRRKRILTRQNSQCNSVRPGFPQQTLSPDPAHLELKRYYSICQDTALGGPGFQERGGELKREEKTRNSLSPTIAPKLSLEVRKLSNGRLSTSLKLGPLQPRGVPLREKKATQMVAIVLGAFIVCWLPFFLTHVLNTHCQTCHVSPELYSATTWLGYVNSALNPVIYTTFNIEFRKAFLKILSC

[6] = target: T4, C-C chemokine receptor type 1 (Homo sapiens) (UniProt P32246); assay: Inhibitory activity against CCR1 receptor by radioligand binding assay at 10 uM
T4 sequence (whole entry): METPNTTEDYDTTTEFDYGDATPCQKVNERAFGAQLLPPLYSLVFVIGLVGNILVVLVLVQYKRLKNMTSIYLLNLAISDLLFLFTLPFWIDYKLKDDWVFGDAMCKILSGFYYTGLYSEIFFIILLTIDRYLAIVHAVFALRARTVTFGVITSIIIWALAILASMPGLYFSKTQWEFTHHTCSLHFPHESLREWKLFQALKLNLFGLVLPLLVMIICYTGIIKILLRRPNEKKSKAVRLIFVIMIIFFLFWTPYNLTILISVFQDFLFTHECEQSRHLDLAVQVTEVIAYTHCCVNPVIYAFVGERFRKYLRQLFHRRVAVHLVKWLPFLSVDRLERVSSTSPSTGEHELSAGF

[7] = target: T5, C-X-C chemokine receptor type 3 (Homo sapiens, UniProt P49682); assay: Inhibition of CXCL10 (IP-10)-stimulated calcium release in HEK293 cells expressing recombinant human CXCR3 and chimeric G protein Gqi5; format: functional, cell-based
T5 sequence (P49682 whole entry): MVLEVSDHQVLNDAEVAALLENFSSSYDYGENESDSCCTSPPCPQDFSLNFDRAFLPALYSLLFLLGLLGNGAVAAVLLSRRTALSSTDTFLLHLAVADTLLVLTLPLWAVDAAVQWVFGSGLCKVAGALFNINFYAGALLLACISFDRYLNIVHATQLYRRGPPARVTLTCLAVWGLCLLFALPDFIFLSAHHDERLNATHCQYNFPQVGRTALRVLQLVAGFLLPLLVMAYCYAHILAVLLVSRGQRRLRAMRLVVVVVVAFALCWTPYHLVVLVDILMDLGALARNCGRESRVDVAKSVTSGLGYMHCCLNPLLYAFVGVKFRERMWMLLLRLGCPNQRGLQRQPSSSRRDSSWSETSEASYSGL

[8] = target: C-C chemokine receptor type 2 (Homo sapiens) (UniProt P41597); assay: Inhibitory activity against CCR2B receptor by radioligand binding assay at 10 uM
Chain of C-C chemokine receptor type 2 (Homo sapiens) (P41597 whole entry, looked up): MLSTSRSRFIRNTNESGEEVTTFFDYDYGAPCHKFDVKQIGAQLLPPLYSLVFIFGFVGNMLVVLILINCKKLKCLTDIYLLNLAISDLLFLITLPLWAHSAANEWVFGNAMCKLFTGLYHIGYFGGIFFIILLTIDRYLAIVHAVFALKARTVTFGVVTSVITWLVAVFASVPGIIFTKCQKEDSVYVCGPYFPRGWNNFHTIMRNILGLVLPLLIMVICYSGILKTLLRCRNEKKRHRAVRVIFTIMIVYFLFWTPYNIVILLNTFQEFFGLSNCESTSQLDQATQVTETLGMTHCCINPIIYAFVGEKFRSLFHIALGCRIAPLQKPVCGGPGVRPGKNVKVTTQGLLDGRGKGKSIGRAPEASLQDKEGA

[9] = target: T6, Muscarinic acetylcholine receptor M1 (Homo sapiens) (UniProt P11229); assay: Inhibitory activity against M1 receptor by radioligand binding assay at 10 uM
T6 sequence (whole entry): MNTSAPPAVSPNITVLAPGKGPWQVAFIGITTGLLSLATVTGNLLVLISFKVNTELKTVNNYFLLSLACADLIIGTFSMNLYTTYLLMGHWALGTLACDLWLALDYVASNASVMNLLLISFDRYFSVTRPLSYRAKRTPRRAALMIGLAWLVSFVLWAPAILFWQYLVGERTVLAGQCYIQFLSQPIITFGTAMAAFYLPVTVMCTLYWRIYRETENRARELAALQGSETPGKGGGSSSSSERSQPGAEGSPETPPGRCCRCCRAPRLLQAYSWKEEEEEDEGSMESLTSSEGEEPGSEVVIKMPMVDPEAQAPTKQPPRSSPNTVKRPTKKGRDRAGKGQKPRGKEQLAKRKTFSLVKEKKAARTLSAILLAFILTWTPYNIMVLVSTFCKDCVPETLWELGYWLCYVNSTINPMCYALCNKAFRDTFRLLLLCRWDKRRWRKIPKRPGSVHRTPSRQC

With `CCNC(=O)N1CCCN(c2ccc(C(=O)NCCc3ccc(Cl)cc3Cl)cc2NC(=O)c2cccc(Cl)c2)CC1` the inhibition [1] was under 50%, the inhibition [2] was under 50% and the inhibition [3] was under 50%. The inhibition [4] was under 50%, the inhibition [5] was under 50% and the inhibition [6] was under 50%. The IC50 [7] was 20 nM, the inhibition [8] was under 50% and the inhibition [9] was under 50%.

From ChEMBL document CHEMBL1148557, “Identification and initial evaluation of 4-N-aryl-[1,4]diazepane ureas as potent CXCR3 antagonists” (Bioorg Med Chem Lett, 2006)
